Source: US20240066051A1 (priority 2022, published 2024)

Columns and labels:
[1] = tested on: S-protein RBD mutants (VOC); format: binding, SARS-CoV-2
[2] = tested on: SARS-CoV-2 pseudotyped viral particles (Delta variant); format: binding
[3] = tested on: SARS-CoV-2 pseudotyped viral particles (Delta variant); format: cell-based
[4] = target: S-protein RBD L452R+T478K mutant (Severe acute respiratory syndrome coronavirus 2, UniProt P0DTC2, L452R/T478K)
[5] = target: SARS-CoV-2 S-protein RBD E484Q (Severe acute respiratory syndrome coronavirus 2, UniProt P0DTC2, E484Q); format: binding
[6] = target: SARS-CoV-2 S-protein RBD L452R + T478K (Severe acute respiratory syndrome coronavirus 2, UniProt P0DTC2, L452R/T478K); format: binding
[7] = target: SARS-CoV-2 S-protein RBD T478K (Severe acute respiratory syndrome coronavirus 2, UniProt P0DTC2, T478K); format: binding
[8] = target: SARS-CoV-2 S-protein RBD L452R (Severe acute respiratory syndrome coronavirus 2, UniProt P0DTC2, L452R); format: binding
[9] = target: SARS-CoV-2 S-protein RBD N501Y (Severe acute respiratory syndrome coronavirus 2, UniProt P0DTC2, N501Y); format: binding

Row | Substance | inhibition of S-protein RBD mutant-heparin interaction compared with heparin [1] | inhibition of pseudotyped viral particle binding to heparin surface compared with heparin control [2] | IC50 for viral inhibition [3] | inhibition of S-protein RBD mutant-heparin interaction compared with heparin [4] | ka [5] | kd [5] | ka [6] | kd [6] | ka [7] | kd [7] | affinity to heparin compared with the WT RBD [8] | ka [8] | kd [8] | affinity to heparin compared with the WT RBD [9] | ka [9] | kd [9]
1 | pentosan polysulfate [PPS] | stronger inhibition | stronger inhibition | 0.07 µg/mL | comparable inhibition to heparin | – | – | – | – | – | – | – | – | – | – | – | –
2 | heparin | – | – | – | – | 5.2 × 10^4 1/MS | 0.011 1/S | 2.3 × 10^4 1/MS | 0.014 1/S | 1.2 × 10^4 1/MS | 6.0 × 10^−3 1/S | lower affinity | 161 1/MS | 1.3 × 10^−3 1/S | higher affinity | 1.7 × 10^4 1/MS | 4.2 × 10^−4 1/S
3 | mucopolysaccharide polysulfate [MPS] | stronger inhibition | stronger inhibition | 0.28 µg/mL | comparable inhibition to heparin | – | – | – | – | – | – | – | – | – | – | – | –
